{"source": "patent US12576047B2", "about": "“Telomerase activating compounds for use in fertility and related applications” (Neuromagen Pharma Ltd, priority 2017, dated 2026)", "key": {"γ-H2AX": {"test_system": "γ-H2AX", "assay": "γ-H2AX immunofluorescence of testis", "assay_type": "in vivo, mouse", "conditions": "12 hrs", "method": "(§1) Toward this end, ICR mice (3 months old) were injected with 6 mg/kg of Compound 79, Compound 68 or Compound 70, or mice were subjected to X-ray radiation (2.5 Gy) followed by immediately injection of the respective compounds. Control mice were untreated or vehicle treated with or without exposure to X-ray radiation. The testes were removed 12 hrs after treatments and subjected to protein extracts or total RNA preparations for the examination of telomerase activity by TRAP assay, telomerase expression by Western blot and real time PCR. Testes were also taken for immunohistochemical and immunofluorescence analysis with various spermatogenesis markers. Epididymis was also taken for sperm count."}, "ICR mice": {"test_system": "ICR mice", "assay": "Sperm count from the epididymis, with or without X-ray radiation", "assay_type": "in vivo, mouse", "method": "as §1, with “The testes were removed 12 hrs after treatments and subjected to protein extracts or total RNA preparations for the examination of telomerase activity by TRAP assay, telomerase expression by Western blot and real time PCR.” left out"}, "[1]": {"test_system": "Steroidogenic acute regulatory protein (StAr)", "assay": "StAr relative mRNA levels by qRT-PCR in granulosa cells", "assay_type": "cell-based, rat", "conditions": "50 nM for 6 hours", "method": "(§2) Immortalized rat granulosa cells expressing FSH receptor were treated with either pregnant mare serum gonadotropin (PMSG), or the indicated compounds, or both for 6 hours. Protein extracts prepared from these cells served for telomerase activity measurement using a telomere repeat amplification protocol (TRAP) assay.\n(§3) Briefly, protein extract incubated with oligonucleotide, which serves as a template for telomerase (TS), for 45 minutes at 30° C. followed by PCR with reverse primer (ACX) and internal control. PCR products were separated on 4.5% agarose gel. RNA extracts were used for cDNA synthesis and quantitative real time PCR with specific primers to Telomerase reverse transcriptase (TERT), Steroidogenic acute regulatory protein (StAr) and β-actin as a reference gene. To measure progesterone levels secreted by the cells, granulosa cells were cultured with or without 1 IU/mL PMSG and DMSO, Compound 79 50 nM or compound 70 50 nM in the presence of 100 nM dexamethasone. After 24 hours progesterone levels cell-culture medium were determined by radioimmunoassay (RIA). For cell proliferation measurement, 1×10^5 cells were seeded in a 96 wells plate with 1 IU/mL PMSG and DMSO, Compound 79 50 nM or Compound 70 50 nM. After 24 hours cells viability was measured by XTT proliferation assay."}, "LH": {"test_system": "LH", "assay": "LH expression by RT-PCR in pituitary gland cells", "assay_type": "cell-based, mouse", "conditions": "50 nM, 12 hours, vs untreated", "method": "(§4) FIGS. 29A, 29B, 29C and 29D: The embodied compounds affect the expression of gonadotropin hormones in pituitary gland cells. Cells (L T2) derived from the mouse pituitary gland were assessed for their secretion of LH and FSH at 6 (FIGS. 29A and 29B) and 12 hours (FIGS. 29C and 29D) following treatment with the indicated embodied compounds (50 nM). FSH and LH expression was determined by RT-PCR, and quantified from 5 different experiments, as assessed for significance, using the t test, one way ANOVA."}, "mouse ovary": {"test_system": "mouse ovary", "assay": "Hematoxylin-eosin histology of mouse ovary", "assay_type": "in vivo", "source_text": "The ovaries were weighted; one was taken for protein extraction for measuring telomerase activity by TRAP assay, and the other one for the histological examination using hematoxylin-eosin staining of the ovary and its follicles.\nThe mice ovaries were removed and fixed with 4% paraformaldehyde overnight, dehydrated in increasing ethanol concentrations to xylene, and embedded in paraffin. A rotary microtome was used to produce 5 μm sections, which were mounted on Superfrost plus slides. The sections were dried and heated at 37° C. overnight and stored in dry place. Paraffin-embedded sections were deparaffinized in xylene and rehydrated in decreasing concentrations of ethanol. Then the sections stained with hematoxylin-eosin or subjected to immunochemical and Immunofluorescent assays [Liani-Leibson, K., I. Har-Vardi, and E. Priel, Inhibition of topoisomerase I by anti-cancer drug altered the endometrial cyclicity and receptivity. Curr Mol Med, 2014. 14(1): p. 141-50]."}, "telomerase": {"biological_target": "T1, telomerase (Rattus norvegicus, UniProt Q673L6)", "T1 construct": "Protein extracts prepared from these cells served for telomerase activity measurement; endogenous in cells; host or cells: immortalized rat granulosa cells expressing FSH receptor", "T1 sequence (Q673L6 whole entry)": "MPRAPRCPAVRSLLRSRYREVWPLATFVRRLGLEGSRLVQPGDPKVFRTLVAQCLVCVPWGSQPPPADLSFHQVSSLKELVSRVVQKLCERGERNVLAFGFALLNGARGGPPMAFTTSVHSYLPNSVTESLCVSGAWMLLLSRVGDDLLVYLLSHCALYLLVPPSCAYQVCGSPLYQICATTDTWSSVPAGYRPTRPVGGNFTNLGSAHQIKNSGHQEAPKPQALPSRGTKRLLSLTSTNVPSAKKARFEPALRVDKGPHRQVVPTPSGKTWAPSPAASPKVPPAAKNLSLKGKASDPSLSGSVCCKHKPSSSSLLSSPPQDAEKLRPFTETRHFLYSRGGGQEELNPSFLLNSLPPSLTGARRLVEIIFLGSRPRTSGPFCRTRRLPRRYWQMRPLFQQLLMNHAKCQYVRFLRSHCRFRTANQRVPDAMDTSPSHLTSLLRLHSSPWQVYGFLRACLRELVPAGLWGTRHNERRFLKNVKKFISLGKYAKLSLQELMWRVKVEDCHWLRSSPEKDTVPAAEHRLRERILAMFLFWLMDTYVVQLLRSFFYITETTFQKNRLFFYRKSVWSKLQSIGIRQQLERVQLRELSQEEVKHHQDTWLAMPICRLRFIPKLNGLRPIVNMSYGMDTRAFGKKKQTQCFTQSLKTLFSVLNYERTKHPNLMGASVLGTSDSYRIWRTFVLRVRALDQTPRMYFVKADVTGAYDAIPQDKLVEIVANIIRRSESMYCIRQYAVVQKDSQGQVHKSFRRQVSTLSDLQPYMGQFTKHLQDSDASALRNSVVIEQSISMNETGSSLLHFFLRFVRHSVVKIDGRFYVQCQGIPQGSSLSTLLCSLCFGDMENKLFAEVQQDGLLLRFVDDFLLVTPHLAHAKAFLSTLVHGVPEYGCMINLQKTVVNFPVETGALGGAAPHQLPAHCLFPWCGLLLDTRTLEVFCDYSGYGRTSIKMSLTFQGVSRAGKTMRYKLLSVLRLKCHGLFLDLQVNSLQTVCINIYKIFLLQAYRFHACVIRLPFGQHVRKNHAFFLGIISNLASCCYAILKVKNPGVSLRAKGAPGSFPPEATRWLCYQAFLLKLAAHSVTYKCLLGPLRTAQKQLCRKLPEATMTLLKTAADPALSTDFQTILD", "assay": "TRAP assay of telomerase activity in granulosa cells", "assay_type": "cell-based", "conditions": "50 nM and 200 nM for 6 hours", "method": "as §2, §3"}, "sperm": {"test_system": "sperm", "assay": "Sperm head morphology after X-ray radiation", "assay_type": "in vivo, mouse", "conditions": "X-ray 2.5 Gy, single S.C. injection 6 mg/kg, 12 hours", "method": "Three-month old mice were irradiated with X-ray (2.5 Gy) and treated with a single S.C. injection of 6 mg/kg of compound 68 or 70. Mice were sacrificed 12 hours later and sperm were removed from the epididymis and stained with eosin. The number of morphologically defective sperm (head morphology) were quantified and presented as a percentage value of the total sperm count (N=6 mice per group) (FIG. 26A). FIG. 26B provides a light micrograph showing healthy and defective sperm head morphology observed. The arrows labeled 1 and 2 point to defective sperm head morphology, and the arrows labeled 3 and 4 point to healthy sperm head morphology"}, "FSH": {"test_system": "FSH", "assay": "FSH expression by RT-PCR in pituitary gland cells", "assay_type": "cell-based, mouse", "conditions": "50 nM, 6 hours, vs untreated", "method": "as §4"}, "[2]": {"test_system": "Telomerase reverse transcriptase (TERT)", "assay": "TERT relative mRNA levels by qRT-PCR in granulosa cells", "assay_type": "cell-based, rat", "conditions": "50 nM and 200 nM for 6 hours", "method": "as §2, §3"}, "ovarian tissue": {"test_system": "ovarian tissue", "assay": "Ovarian tissue histopathology following irradiation", "assay_type": "in vivo", "conditions": "treatment following X-ray irradiation", "source_text": "FIGS. 28A, 28B and 28C: Ovarian tissue histopathology following irradiation (FIG. 28A), followed by treatment with Compound 70 (FIG. 28C) or DMSO carrier (FIG. 28B)."}, "CREM": {"test_system": "CREM", "assay": "CREM expression in X-ray irradiated testis", "assay_type": "in vivo, mouse", "conditions": "X-ray 2.5 Gy then injection, 12 hrs", "method": "as §1"}, "old mice (16 months old)": {"test_system": "old mice (16 months old)", "assay": "Sperm count and motility in old mice", "assay_type": "in vivo, mouse", "conditions": "single injection 6 mg/Kg"}}, "note": "Entries after “also recorded” stand apart in the source; their conditions may differ."}
{"smiles": "COc1c(Br)cc(C(C)(c2cc(Br)c(OC)c(Br)c2)c2cc(Br)c(OC)c(Br)c2)cc1Br", "note": "[Compound 70]", "values": [{"measurement": "DNA damage (γ-H2AX) in testis", "setting": "γ-H2AX; compound only, without irradiation", "value": "did not cause DNA damage"}, {"measurement": "expression levels of γ-H2AX in testis", "setting": "γ-H2AX; irradiated mice (2.5 Gy)", "value": "a decrease in the expression levels of γ-H2AX"}, {"measurement": "sperm count", "setting": "ICR mice; irradiated mice, 9 and 30 days post irradiation", "value": "increased sperm count at 9 and 30 days post irradiation"}, {"measurement": "sperm cells number from the epididymis", "setting": "ICR mice; non-irradiated mice, 12 hrs post treatment, compared to DMSO", "value": "a significant increase"}, {"measurement": "expression of StAr", "setting": "[1]", "value": "increased expression of StAr"}, {"measurement": "LH expression", "setting": "LH", "value": "increased LH production above untreated levels"}, {"measurement": "ovary histology (follicles, granulosa cells)", "setting": "mouse ovary; 6 mg/Kg single dose at met-estrus stage, 12 hours", "value": "more developed follicles (white arrow) and plurality of layers of granulosa cells (GC) around the oocytes"}, {"measurement": "ovary histology (corpus luteum)", "setting": "mouse ovary; 6 mg/Kg single dose at pro-estrus and estrus stages, 12 hrs", "value": "more corpus luteum (CL) than in the control group"}, {"measurement": "telomerase activity (TRAP)", "setting": "telomerase", "value": "increased expression in a dose-dependent fashion; also recorded: further increased telomerase activity and expression in granulosa cells as compared to compound 79"}, {"measurement": "number of defective sperm cells (head morphology)", "setting": "sperm", "value": "reduction in the number of defective sperm cells"}, {"measurement": "FSH expression", "setting": "FSH", "value": "decreased FSH expression relative to untreated samples"}, {"measurement": "TERT relative mRNA levels", "setting": "[2]", "value": "increased expression in a dose-dependent fashion"}, {"measurement": "ovarian tissue histopathology (H&E)", "setting": "ovarian tissue", "value": "clearly rescues ovarian tissue exposed to radiation"}, {"measurement": "CREM expression in testis", "setting": "CREM", "value": "restored the expression of the spermatogenesis markers"}, {"measurement": "sperm counts", "setting": "old mice (16 months old)", "value": "increased"}, {"measurement": "sperm motility", "setting": "old mice (16 months old)", "value": "increased"}]}
